Experimental data taken from patent publication US11993594B2, “IRAK inhibitors and method for making and using” (Rigel Pharmaceuticals, Inc., priority 2016, dated 2024).
Counter-ions that a name gives are not always drawn. Like-named read-outs stand apart in the source and are kept apart here.

Tests used:
[1] = tested on: LPS induced IL-23 (p19/p40) in DC cells; assay: IL23-p19 ELISA, dendritic (DC) cells differentiated from human PBMC, LPS stimulated; assay type: cell-based; conditions: LPS 1 μg/ml, 18 hours, 10 pt
Description: Compound Screening Using DC Cells
Human PBMC cells (400 million) obtained from the vendor were transferred into a T-175 flask containing 15 ml RPMI media (10% FBS) and incubate for 2 hours at 37° C. After 2 hours, the media including floating cells was aspirated out carefully and 12 ml of fresh RPMI media (10% FBS) containing GMCSF (100 ng/ml) and IL4 (20 ng/ml) was added, and the flask was kept in a 37° C. incubator for 7 days.
After 3 days, fresh GMCSF (100 ng/ml) and IL4 (20 ng/ml) were added to the flask and the incubation continued. After 7 days, the fully differentiated cells were harvested by spinning down (1200 rpm/5 min) and aspirating the media. The cells were suspended in fresh RPMI media (10% FBS) containing 50 ng/ml IFNγ (1000 U/ml) and then plated (50K/well in 100 μl) onto a white clear bottom 96 well plate and left in a 37° C. incubator for 24 hours.
After 24 hours incubation, 100 μl of RPMI media was added containing 2× concentrated test compound per well to the above cell-culture media (final concentration becomes 1×) and the plates were pre-incubated for 1 hour at 37° C. before stimulating with LPS.
After 1 hour compound pre-incubation, 10 μl per well of 20× concentrated LPS solution in RPMI media was added to give a final concentration of 1 μg/ml. The mixture was shaken and incubated the plates at 37° C. for an additional 18 hours.
155 μl of the supernatant was harvested from each well carefully (without the tip touching the bottom of the well) and to the remaining 50 μl/well of the cell culture plate was added 50 μl of Cell Titer Glo reagent. The mixture was incubated for 1-2 minutes on a shaker and the plate was read for luminescence intensity to determine the compound cytotoxicity. The cell culture supernatant collected above was used to carry out IL23 ELISA (65 μl—Supernatant) and IL10 ELISA (90 μl—Supernatant) as described below.
Human IL-23 (p19/p40) ELISA Protocol (e-Biosciences)
To 10.5 ml PBS add 50 μl of anti-IL23 (p19) was added capture antibody (2.5 μg/ml). The mixture was mixed well and 100 μl of the coating solution was added to each well of the 96 well white plates from Pierce. The wells were covered and incubated overnight at 4° C.
The anti-IL23 (p19)-antibody-coated plates were washed 2× using TBST (use plate washer) and blocked using 200 μl of 0.5% Casein for 1.5 to 2 hours at room temperature with shaking.
The plates were washed 2× using TBST and the supernatant was transferred (65 μl/well) to the above pre-blocked/IL23(p19)-antibody-coated 96 well plate, and incubated at room temperature for 1.5 hours with shaking.
The plates were washed 4× using TBST (plate washer) and 100 μl/well detection antibody solution prepared from 2 μl of biotin labeled anti-IL-12 (p40/p70) antibody in 11 ml 1% BSA/PBS solution (1-5000 dilution) was added. The plates were incubated for 1 hour with shaking at Room temperature.
Again, the plates were washed 4× with TBST and 100 μl of HRP labeled Streptavidin (R&D Systems) solution (10 μl/10 ml 1% BSA solution) was added, and the plates were incubated at room temperature for another 45 minutes with shaking.
After 45 minutes, the plates were washed with TBST 4× and 100 μl/well Super Signal ELISA Pico Chemiluminescent Substrate from Pierce (3.5 ml A+3.5 ml B+3.5 ml MQ water) was added. The plates were shaken for 1-2 minutes then read on a plate reader. […]

[2] = tested on: LPS Induced IL23p19 in THP-1 Cells; assay: LPS Induced IL23p19 in THP-1 Cells (with IFNγ Primed) Assay; assay type: cell-based, human; conditions: THP-1 cells primed with IFNγ 50 ng/mL, LPS 1 ug/mL, 18 hours, 10 pt, read-out: IL23-p19 ELISA, THP1-IFNγ, LPS, 10 pt EC50
Source text: LPS Induced IL23p19 in THP-1 Cells (with IFNγ Primed) Assay
THP-1 Cells (ATCC, Cat #TIB-202), Dimethyl Sulfoxide (DMSO) (Sigma-Aldrich, Cat #D2650), RPMI 1640 (Cellgro, Cat #10-040-CM), Fetal Bovine Serum (Sigma, Cat #F4135), Albumin From Bovine Serum (BSA) (Sigma-Aldrich, Cat #A7906), LPS (Serotype K-235, Sigma, Product Number L 2143), IFNγ (Peprotech, Cat #300-02) Capture antibody: Human IL-23p19 ELISA (e-Bioscience, Cat. #14-7238-85), Detection antibody: Primary Mouse Biotinylated anti-human IL-12(p40/p70) (e-Bioscience, Cat. #13-7129-85), Secondary HRP-conjugated Streptavidin (R&D Systems, Cat #DY998), 1×PBST Washing Buffer (PBS-Tween tablet) (VWR International, Cat #80058-558), ELISA Blocking Buffer (PBS with 1% BSA), ELISA Dilution Buffer (PBS with 1% BSA), 384 Well Flat-Bottom, MaxiSorp Black Immuno Plates (Thermo Scientific, Cat #12-565-346), 384 Well Flat-Bottom, White Tissue Culture Plates (Thermo Scientific, Cat #12-565-343), Super Signal ELISA Pico Chemiluminescent Substrate (Thermo Scientific, Cat #37070), Cell Titer Glo reagent (Promega, Cat #G7573), Positive control, IKK2VI inhibitor (Calbiochem, Cat #401483), AquaMax 4000 plate washer (Molecular Devices), Luminometer, Wallac Victor2 1420 Multilabel Counter.
On day 1, 50K/well THP-1 cells were seeded and primed with IFNγ (50 ng/mL) in 384-well plates for about 18 hours in RPMI media with 10% FBS. On day 2, the compound was serially diluted in DMSO from 5 mM in 3-fold dilutions, and then diluted 1:125 in RPMI media with 10% FBS. 50 μL/well 2× compound was added to 50 μL/well THP-1 cells (with IFNγ primed) in duplicate in 384 well tissue culture plates. The cells were pre-incubated with compound for 1 hour at 37° C., 5% CO2 before addition of 10 μL/well 11×LPS to give a final concentration of 1 ug/mL LPS. Day 3, after stimulation for 18 hours at 37° C., 5% CO2, the assay plate was centrifuged and 70 μL/well supernatant was harvested. IL-23p19 protein in 70 µL/well of supernatant was measured by sandwich ELISA, and 25 μl/well Cell Titer Glo reagent was added to the remaining cells to measure compound toxicity.
Human IL-23p19 Sandwich ELISA:
Maxisorp immuno ELISA plates were pre-coated with 25 μL/well of anti-IL-23p19 capture antibody (2.5 ug/mL) in PBS overnight at room temperature. After washing with 1×PBST, the plates were blocked using 100 μL/well of 1% BSA in PBS for 2 hours at room temperature. The plates were washed three times with 1×PBST and 70 μL/well supernatant were added. The plates were incubated at room temperature for 2 hours with shaking and washed three times with 1×PBST. 25 μL/well of biotin labeled anti-IL-12(p40/p70) detection antibody (100 ng/mL) in PBS with 1% BSA was added and the plates were incubated at room temperature for 2 hours with shaking. After washing three times with 1×PBST, 25 μL/well of streptavidin-HRP (1:200) in PBS with 1% BSA was added and the plates were incubated at room temperature for 20 minutes with shaking. The plates were washed three times with 1×PBST and 25 μL/well of Super Signal ELISA Pico Chemiluminescent Substrate were added. The plates were read with a luminometer, and the chemiluminescence values were entered into Athena (Rigel) for curve fitting, EC50 calculation, and database storage. […]

| SMILES | EC50 ([1]; Table 1, IFNγ 50 ng/ml) [nM] | EC50 ([1]; Table 2, IFNγ 50 ng/ml) [nM] | EC50 ([2]; Table 1) [nM] | EC50 ([2]; Table 2) [nM] | EC50 ([2]; Homo sapiens, Table 1) [nM] | EC50 ([2]; Table 3) [nM] |
| --- | --- | --- | --- | --- | --- | --- |
| CCO[C@H]1CC[C@H](n2cc(NC(=O)c3coc(-c4cnn(COP(=O)(O)O)c4)n3)c(-c3nc(F)ccc3F)n2)CC1 [Compound I-12, (4-(4-((3-(3,6-difluoropyridin-2-yl)-1-((1r,4r)-4-ethoxycyclohexyl)-1H-pyrazol-4-yl)carbamoyl)oxazol-2-yl)-1H-pyrazol-1-yl)methyl dihydrogen phosphate] | 2400 | 2400 | 177 | 177 | – | – |
| CCO[C@H]1CC[C@H](n2cc(NC(=O)c3coc(-c4cn[nH]c4)n3)c(-c3ncccn3)n2)CC1 [Compound I-3, N-(1-((1r,4r)-4-ethoxycyclohexyl)-3-(pyrimidin-2-yl)-1H-pyrazol-4-yl)-2-(1H-pyrazol-4-yl)oxazole-4-carboxamide] | 3.3 | 3.3 | 8.9 | 8.9 | – | – |
| COCCOCCn1cc(NC(=O)c2coc(-c3cn[nH]c3)n2)c(-c2ccccn2)n1 [Compound I-24, N-(1-(2-(2-methoxyethoxy)ethyl)-3-(pyridin-2-yl)-1H-pyrazol-4-yl)-2-(1H-pyrazol-4-yl)oxazole-4-carboxamide] | 217 | – | – | – | 238 | – |
| Cn1cc(NC(=O)c2coc(-c3cnn(CC4CC4)c3)n2)c(-c2ccccn2)n1 [Compound I-19, 2-(1-(cyclopropylmethyl)-1H-pyrazol-4-yl)-N-(1-methyl-3-(pyridin-2-yl)-1H-pyrazol-4-yl)oxazole-4-carboxamide] | – | – | – | – | – | 20300 |
| O=C(Nc1cn(C2CCC(N3CCOCC3)CC2)nc1-c1cnccn1)c1coc(-c2c[nH]nc2F)n1 (centres unmarked) [Compound I-35, 2-(3-fluoro-1H-pyrazol-4-yl)-N-(1-((1r,4r)-4-morpholinocyclohexyl)-3-(pyrazin-2-yl)-1H-pyrazol-4-yl)oxazole-4-carboxamide formic acid salt] | 46.5 | – | – | – | 78 | – |
| CCO[C@H]1CC[C@H](n2cc(NC(=O)c3coc(-c4cn[nH]c4)n3)c(-c3ccncn3)n2)CC1 [Compound I-6, N-(1-((1r,4r)-4-ethoxycyclohexyl)-3-(pyrimidin-4-yl)-1H-pyrazol-4-yl)-2-(1H-pyrazol-4-yl)oxazole-4-carboxamide] | – | – | 19.6 | 19.6 | – | – |
| CCOC1CCC(n2ncc(NC(=O)c3coc(-c4cn[nH]c4)n3)c2-c2nc(F)ccc2F)CC1 [Compound I-14, N-(5-(3,6-difluoropyridin-2-yl)-1-((1r,4R)-4-ethoxycyclohexyl)-1H-pyrazol-4-yl)-2-(1H-pyrazol-4-yl)oxazole-4-carboxamide] | – | – | 9120 | 9120 | – | – |

Results, then the compound that gave them:

| EC50 ([1]; Table 1, IFNγ 50 ng/ml) [nM] | EC50 ([1]; Table 2, IFNγ 50 ng/ml) [nM] | EC50 ([2]; Table 1) [nM] | EC50 ([2]; Table 2) [nM] | EC50 ([2]; Homo sapiens, Table 1) [nM] | EC50 ([2]; Table 3) [nM] | SMILES |
| --- | --- | --- | --- | --- | --- | --- |
| 39.9 | – | – | – | 2.6 | – | O=C(Nc1cn([C@H]2C[C@@H](O)C2)nc1-c1cnccn1)c1coc(-c2cn[nH]c2)n1 [Compound I-38, N-(1-((1s,3s)-3-hydroxycyclobutyl)-3-(pyrazin-2-yl)-1H-pyrazol-4-yl)-2-(1H-pyrazol-4-yl)oxazole-4-carboxamide] |
| 64.1 | – | – | – | 15.8 | – | O=C(Nc1cn([C@H]2CC[C@H](O)CC2)nc1-c1cnccn1)c1coc(-c2cn[nH]c2)n1 [Compound I-27, N-(1-((1r,4r)-4-hydroxycyclohexyl)-3-(pyrazin-2-yl)-1H-pyrazol-4-yl)-2-(1H-pyrazol-4-yl)oxazole-4-carboxamide] |
| 973 | – | – | – | 688 | – | CCO[C@H]1CC[C@H](n2cc(NC(=O)c3coc(-c4cn[nH]c4)n3)c(-c3nc(C(F)(F)F)ccc3F)n2)CC1 [Compound I-31, N-(1-((1r,4r)-4-ethoxycyclohexyl)-3-(3-fluoro-6-(trifluoromethyl)pyridin-2-yl)-1H-pyrazol-4-yl)-2-(1H-pyrazol-4-yl)oxazole-4-carboxamide] |
| 33.4 | – | – | – | 4.8 | – | CCO[C@H]1CC[C@H](n2cc(NC(=O)c3coc(-c4cn[nH]c4)n3)c(-c3cnccn3)n2)CC1 [Compound I-1, N-(1-((1r,4r)-4-ethoxycyclohexyl)-3-(pyrazin-2-yl)-1H-pyrazol-4-yl)-2-(1H-pyrazol-4-yl)oxazole-4-carboxamide] |
| – | – | – | – | 73.3 | – | O=C(Nc1cn([C@H]2CC[C@H](N3CCOCC3)CC2)nc1-c1nc(F)ccc1F)c1coc(-c2cn[nH]c2)n1 [Compound I-37, N-(3-(3,6-difluoropyridin-2-yl)-1-((1r,4r)-4-morpholinocyclohexyl)-1H-pyrazol-4-yl)-2-(1H-pyrazol-4-yl)oxazole-4-carboxamide] |
